In patent US20150231236A1, “METHODS FOR TREATING PATIENTS WITH HYPERCHOLESTEROLEMIA THAT IS NOT ADEQUATELY CONTROLLED BY MODERATE-DOSE STATIN THERAPY” (Regeneron Pharmaceuticals, Inc., priority 2014, published 2015):

Tested on: patients with hypercholesterolemia at high CV risk not adequately controlled with atorvastatin (20 mg or 40 mg)
Assay: Example 2: randomized, double-blind trial, lipid efficacy of mAb316P add-on to atorvastatin vs EZE add-on, atorvastatin dose doubling or switch to rosuvastatin
Format: in vivo, human
Conditions: for LDL-C W24 % change from baseline, LS mean (SE): ITT population, treatment arm as labelled; for LDL-C W24 % change from baseline, LS mean (SE) / reduced LDL-C levels by / Proportion of Patients Reaching LDL-C goal (%): week 24; for reduced LDL-C levels by: add-on mAb316P; for Proportion of Patients Reaching LDL-C goal (%): calculated LDL-C <70 mg/dL very high risk or <100 mg/dL high risk, combined estimate
Method: The present study was a randomized, double-blind, active-comparator, parallel-group study in patients at high CV risk with non-FH or heFH who are not adequately controlled with atorvastatin (20 mg or 40 mg) with or without other lipid-modifying therapy (LMT) (excluding EZE). The study design is illustrated in FIG. 1. Patients who entered the study were taking either atorvastatin 20 mg or atorvastatin 40 mg. The former patients were randomized to 1 of 3 treatment arms (arms 1 to 3); the latter patients were randomized to 1 of 4 treatment arms (arms 4 to 7). The treatment arms are as follows:
(1) mAb316P+atorvastatin 20 mg+placebo-EZE; (2) Placebo-mAb316P+atorvastatin 40 mg+placebo-EZE; and (3) Placebo-mAb316P+atorvastatin 20 mg+EZE 10 mg.
(4) mAb316P+atorvastatin 40 mg+placebo-EZE; (5) Placebo-mAb316P+atorvastatin 80 mg+placebo-EZE; (6). Placebo-mAb316P+rosuvastatin 40 mg+placebo-EZE; and (7) Placebo-mAb316P+atorvastatin 40 mg+EZE 10 mg.
(B) a double-blind treatment period of 24 weeks. Each patient received a SC injection Q2W (mAb316P or placebo-mAb316P) and was administered (or instructed to take) 2 oral blinded medications daily (a statin [atorvastatin or rosuvastatin] and EZE or placebo-EZE). The first injection of mAb316P or placebo-mAb316P was administered at the clinical site on day 1, after study assessments were completed, and as soon as possible after the patient was randomized into the study. The patient/caregiver administered subsequent injections outside of the clinic according to the dosing schedule. On days where the clinic study visit coincided with dosing, the dose of study drugs (injectable and oral) were administered after all study assessments had been performed and all laboratory samples collected. The last dose of mAb316P or placebo-mAb316P was administered at week 22. The last dose of daily oral study drugs was administered at week 24. At week 12, based on their baseline CV risk, certain patients randomized to mAb316P in a blinded manner, had their dose increased as follows:
Each patient received a subcutaneous (SC) injection once every two weeks (Q2W) (mAb316P or placebo-mAb316P) and took 2 oral blinded medications daily (a statin [atorvastatin or rosuvastatin] and EZE or placebo-EZE).
The injectable study treatment was a single SC injection of 1 mL for a 75 mg or 150 mg dose of mAb316P or placebo-mAb316P provided in an auto-injector, administered in the abdomen, thigh, or outer area of the upper arm. The first injection of study drug was administered at the clinical site, as soon as possible after the patient was randomized into the study. The patient was monitored at the clinical site for at least 30 minutes following the first injection. The patient/caregiver administered subsequent injections outside of the clinic, according to the dosing schedule. On days where the clinic study visit coincided with dosing, the dose of study drug was administered after all study assessments have been performed and all laboratory samples collected.
The dose of mAb316P was increased, in a blinded manner, from 75 mg to 150 mg SC Q2W, starting at week 12, based on baseline CV risk in the following circumstances:
The primary efficacy endpoint was the percent change in calculated LDL-C from baseline to week 24, which is defined as: 100× (calculated LDL-C value at week 24−calculated LDL-C value at baseline)/calculated LDL-C value at baseline. The baseline calculated LDL-C value was the last LDL-C level obtained before the first double-blind study drug injection. The calculated LDL-C at week 24 will be the LDL-C level obtained within the week 24 analysis window and during the main efficacy period. The main efficacy period was defined as the time from the first double-blind study drug injection up to 21 days after the last double-blind study drug injection or up to the upper limit of the week 24 analysis window, whichever comes first.
Total-C, HDL-C, TG, ApoB, ApoA-1, and Lp (a) were directly measured by a central laboratory. […]

CC(C)c1c(C(=O)Nc2ccccc2)c(-c2ccccc2)c(-c2ccc(F)cc2)n1CC[C@@H](O)C[C@@H](O)CC(=O)O [atorvastatin, reference compound]
LDL-C W24 % change from baseline, LS mean (SE) (listed as ATV 40): −5.0% | LDL-C W24 % change from baseline, LS mean (SE) (listed as ATV 80): −4.8% | Calculated LDL-C LS mean (SE), % Change from Baseline (Week 4, listed as ATV 40): −9.9 (3.4) % | Calculated LDL-C LS mean (SE), Change from Baseline (Week 4, listed as ATV 40): −12.9 (3.6) | Calculated LDL-C LS mean (SE), Value (mg/dL) (Week 4, listed as ATV 40): 88.9 (3.6) mg/dL | Calculated LDL-C LS mean (SE), % Change from Baseline (Week 4, listed as ATV 80): −11.7 (2.7) % | Calculated LDL-C LS mean (SE), Change from Baseline (Week 4, listed as ATV 80): −15.3 (2.9) | Calculated LDL-C LS mean (SE), Value (mg/dL) (Week 4, listed as ATV 80): 93.4 (2.9) mg/dL | Calculated LDL-C LS mean (SE), % Change from Baseline (Week 8, listed as ATV 40): −12.6 (3.8) % | Calculated LDL-C LS mean (SE), Change from Baseline (Week 8, listed as ATV 40): −15.1 (4.1) | Calculated LDL-C LS mean (SE), Value (mg/dL) (Week 8, listed as ATV 40): 86.7 (4.1) mg/dL | Calculated LDL-C LS mean (SE), % Change from Baseline (Week 8, listed as ATV 80): −13.1 (3.1) % | Calculated LDL-C LS mean (SE), Change from Baseline (Week 8, listed as ATV 80): −17.2 (3.2) | Calculated LDL-C LS mean (SE), Value (mg/dL) (Week 8, listed as ATV 80): 91.5 (3.2) mg/dL | Calculated LDL-C LS mean (SE), % Change from Baseline (Week 12, listed as ATV 40): −8.5 (3.9) % | Calculated LDL-C LS mean (SE), Change from Baseline (Week 12, listed as ATV 40): −11.9 (4.3) | Calculated LDL-C LS mean (SE), Value (mg/dL) (Week 12, listed as ATV 40): 89.9 (4.3) mg/dL | Calculated LDL-C LS mean (SE), % Change from Baseline (Week 12, listed as ATV 80): −14.5 (3.2) % | Calculated LDL-C LS mean (SE), Change from Baseline (Week 12, listed as ATV 80): −17.9 (3.4) | Calculated LDL-C LS mean (SE), Value (mg/dL) (Week 12, listed as ATV 80): 90.8 (3.4) mg/dL | Calculated LDL-C LS mean (SE), % Change from Baseline (Week 16, listed as ATV 40): −8.2 (3.9) % | Calculated LDL-C LS mean (SE), Change from Baseline (Week 16, listed as ATV 40): −10.9 (4.3) | Calculated LDL-C LS mean (SE), Value (mg/dL) (Week 16, listed as ATV 40): 90.9 (4.3) mg/dL | Calculated LDL-C LS mean (SE), % Change from Baseline (Week 16, listed as ATV 80): −8.0 (3.4) % | Calculated LDL-C LS mean (SE), Change from Baseline (Week 16, listed as ATV 80): −11.3 (3.8) | Calculated LDL-C LS mean (SE), Value (mg/dL) (Week 16, listed as ATV 80): 97.4 (3.8) mg/dL | Calculated LDL-C LS mean (SE), % Change from Baseline (Week 24, listed as ATV 40): −5.0 (4.6) % | Calculated LDL-C LS mean (SE), Change from Baseline (Week 24, listed as ATV 40): −7.9 (4.7) | Calculated LDL-C LS mean (SE), Value (mg/dL) (Week 24, listed as ATV 40): 93.9 (4.7) mg/dL | Calculated LDL-C LS mean (SE), % Change from Baseline (Week 24, listed as ATV 80): −4.8 (4.2) % | Calculated LDL-C LS mean (SE), Change from Baseline (Week 24, listed as ATV 80): −8.7 (4.5) | Calculated LDL-C LS mean (SE), Value (mg/dL) (Week 24, listed as ATV 80): 100.0 (4.5) mg/dL | reduced LDL-C levels by (atorvastatin 20 mg regimen, add-on ezetimibe or doubling of atorvastatin dose): 5.0% | reduced LDL-C levels by (atorvastatin 40 mg regimen, add-on ezetimibe, doubling of atorvastatin dose or switch to rosuvastatin 40 mg): 4.8% | Proportion of Patients Reaching LDL-C goal (%) (listed as ATV 40): 34.5% | Proportion of Patients Reaching LDL-C goal (%) (listed as ATV 80): 15.4%

mAb316P + ATV 20: treatment arm: mAb316P 75/150 mg Q2W + atorvastatin 20 mg daily
LDL-C W24 % change from baseline, LS mean (SE): −44.1% | Calculated LDL-C LS mean (SE), % Change from Baseline (Week 4): −53.3 (3.4) % | Calculated LDL-C LS mean (SE), Change from Baseline (Week 4): −55.8 (3.5) | Calculated LDL-C LS mean (SE), Value (mg/dL) (Week 4): 46.0 (3.5) mg/dL | Calculated LDL-C LS mean (SE), % Change from Baseline (Week 8): −51.2 (3.8) % | Calculated LDL-C LS mean (SE), Change from Baseline (Week 8): −51.4 (4.1) | Calculated LDL-C LS mean (SE), Value (mg/dL) (Week 8): 50.4 (4.1) mg/dL | Calculated LDL-C LS mean (SE), % Change from Baseline (Week 12): −48.4 (3.8) % | Calculated LDL-C LS mean (SE), Change from Baseline (Week 12): −49.0 (4.2) | Calculated LDL-C LS mean (SE), Value (mg/dL) (Week 12): 52.8 (4.2) mg/dL | Calculated LDL-C LS mean (SE), % Change from Baseline (Week 16): −53.8 (3.9) % | Calculated LDL-C LS mean (SE), Change from Baseline (Week 16): −54.8 (4.3) | Calculated LDL-C LS mean (SE), Value (mg/dL) (Week 16): 47.0 (4.3) mg/dL | Calculated LDL-C LS mean (SE), % Change from Baseline (Week 24): −44.1 (4.5) % | Calculated LDL-C LS mean (SE), Change from Baseline (Week 24): −47.5 (4.7) | Calculated LDL-C LS mean (SE), Value (mg/dL) (Week 24): 54.3 (4.7) mg/dL | Proportion of Patients Reaching LDL-C goal (%): 87.2%

mAb316P + ATV 40: treatment arm: mAb316P 75/150 mg Q2W + atorvastatin 40 mg daily
LDL-C W24 % change from baseline, LS mean (SE): −54.0% | Calculated LDL-C LS mean (SE), % Change from Baseline (Week 4): −56.5 (2.8) % | Calculated LDL-C LS mean (SE), Change from Baseline (Week 4): −63.2 (2.9) | Calculated LDL-C LS mean (SE), Value (mg/dL) (Week 4): 45.5 (2.9) mg/dL | Calculated LDL-C LS mean (SE), % Change from Baseline (Week 8): −55.7 (3.2) % | Calculated LDL-C LS mean (SE), Change from Baseline (Week 8): −63.4 (3.3) | Calculated LDL-C LS mean (SE), Value (mg/dL) (Week 8): 45.3 (3.3) mg/dL | Calculated LDL-C LS mean (SE), % Change from Baseline (Week 12): −50.5 (3.2) % | Calculated LDL-C LS mean (SE), Change from Baseline (Week 12): −56.9 (3.5) | Calculated LDL-C LS mean (SE), Value (mg/dL) (Week 12): 51.8 (3.5) mg/dL | Calculated LDL-C LS mean (SE), % Change from Baseline (Week 16): −56.9 (3.5) % | Calculated LDL-C LS mean (SE), Change from Baseline (Week 16): −64.3 (3.9) | Calculated LDL-C LS mean (SE), Value (mg/dL) (Week 16): 44.4 (3.9) mg/dL | Calculated LDL-C LS mean (SE), % Change from Baseline (Week 24): −54.0 (4.3) % | Calculated LDL-C LS mean (SE), Change from Baseline (Week 24): −62.3 (4.6) | Calculated LDL-C LS mean (SE), Value (mg/dL) (Week 24): 46.4 (4.6) mg/dL | Proportion of Patients Reaching LDL-C goal (%): 82.4%
